Values quoted from earlier work in patent publication US20250073197A1, “THE ANTI-INFLAMMATORY ROLE OF CANNABIDIOL, RETINYL PALMITATE, BETA-CARYOPHYLLENE AND TRIBUTYRIN WHEN ADMINISTERED IN CONJUNCTION” (FLG Sciences, LLC, priority 2023, published 2025).

What was measured:
[1] = use in the disease named in Table 1 (Diabetes or Dyslipidemia)
[2] = tested on: 24,000 gene probes

Compound	Side effect [1]	other results
Cn1c(COc2ccc(CC3SC(=O)NC3=O)cc2)nc2ccccc2c1=O (stereo not shown) [Balaglitazone]	Edema	–
CC(C)(Oc1ccc(CCNC(=O)c2ccc(Cl)cc2)cc1)C(=O)O [Bezafibrate]	Hepatotoxicity	–
CC(C)OC(=O)C(C)(C)Oc1ccc(C(=O)c2ccc(Cl)cc2)cc1 [Fenofibrates]	Pancreatitis	–
CCc1ccc(CCOc2ccc(CC3SC(=O)NC3=O)cc2)nc1 (stereo not shown) [Pioglitazone]	Edema	–
CN(CCOc1ccc(CC2SC(=O)NC2=O)cc1)c1ccccn1 (stereo not shown) [Rosiglitazone]	Edema	–
cannabidiol [CBD]	–	gene transcripts down-regulated ([2]; Illumina gene array): 524; gene transcripts up-regulated ([2]; Illumina gene array): 680; genes downregulated 2-fold or more ([2]; Illumina gene array): 38; transcripts upregulated 2-fold or more ([2]; Illumina gene array): 123; gene transcripts significantly regulated ([2]; Illumina gene array, 24,000 gene probes): 1204
